In ChEMBL document CHEMBL5291721, “A preclinical secondary pharmacology resource illuminates target-adverse drug reaction associations of marketed drugs” (Nat Commun, 2023):

Experiments:
[1] = target: Adenosine receptor A2a (Homo sapiens, UniProt P29274)
[2] = target: T1, Alpha-1A adrenergic receptor (Homo sapiens, UniProt P35348); assay type: functional, cell-based
T1 sequence (P35348 whole entry): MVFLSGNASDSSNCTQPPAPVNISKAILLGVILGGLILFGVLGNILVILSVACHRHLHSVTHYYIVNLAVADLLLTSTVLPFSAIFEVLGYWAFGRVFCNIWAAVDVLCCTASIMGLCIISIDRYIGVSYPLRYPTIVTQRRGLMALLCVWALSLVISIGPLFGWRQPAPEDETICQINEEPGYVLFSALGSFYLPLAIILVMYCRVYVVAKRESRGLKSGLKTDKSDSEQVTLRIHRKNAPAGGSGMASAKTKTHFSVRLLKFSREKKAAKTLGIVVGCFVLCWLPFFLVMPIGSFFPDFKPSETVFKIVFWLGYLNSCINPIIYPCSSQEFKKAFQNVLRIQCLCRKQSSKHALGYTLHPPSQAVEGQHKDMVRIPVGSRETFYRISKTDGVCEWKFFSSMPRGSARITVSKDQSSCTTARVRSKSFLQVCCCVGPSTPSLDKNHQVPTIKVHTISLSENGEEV

[3] = target: T2, Alpha-2A adrenergic receptor (Homo sapiens, UniProt P08913); assay type: functional, cell-based
T2 sequence (P08913 whole entry): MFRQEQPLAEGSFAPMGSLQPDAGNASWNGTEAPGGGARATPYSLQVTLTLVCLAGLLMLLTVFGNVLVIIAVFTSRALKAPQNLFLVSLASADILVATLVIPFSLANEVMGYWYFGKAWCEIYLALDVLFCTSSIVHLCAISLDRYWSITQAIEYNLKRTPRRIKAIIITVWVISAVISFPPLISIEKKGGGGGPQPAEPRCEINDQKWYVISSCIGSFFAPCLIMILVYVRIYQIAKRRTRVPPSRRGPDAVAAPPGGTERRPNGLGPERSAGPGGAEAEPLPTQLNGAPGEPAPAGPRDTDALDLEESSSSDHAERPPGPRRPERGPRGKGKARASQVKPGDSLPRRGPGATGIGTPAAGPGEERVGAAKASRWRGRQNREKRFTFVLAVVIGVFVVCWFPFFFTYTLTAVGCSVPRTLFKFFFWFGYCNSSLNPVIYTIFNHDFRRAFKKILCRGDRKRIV

[4] = target: T2, Alpha-2A adrenergic receptor; assay type: functional, cell-based; remark: listed apart in the source
[5] = target: T3, Alpha-2C adrenergic receptor (Homo sapiens, UniProt P18825); assay type: functional
T3 sequence (P18825 whole entry): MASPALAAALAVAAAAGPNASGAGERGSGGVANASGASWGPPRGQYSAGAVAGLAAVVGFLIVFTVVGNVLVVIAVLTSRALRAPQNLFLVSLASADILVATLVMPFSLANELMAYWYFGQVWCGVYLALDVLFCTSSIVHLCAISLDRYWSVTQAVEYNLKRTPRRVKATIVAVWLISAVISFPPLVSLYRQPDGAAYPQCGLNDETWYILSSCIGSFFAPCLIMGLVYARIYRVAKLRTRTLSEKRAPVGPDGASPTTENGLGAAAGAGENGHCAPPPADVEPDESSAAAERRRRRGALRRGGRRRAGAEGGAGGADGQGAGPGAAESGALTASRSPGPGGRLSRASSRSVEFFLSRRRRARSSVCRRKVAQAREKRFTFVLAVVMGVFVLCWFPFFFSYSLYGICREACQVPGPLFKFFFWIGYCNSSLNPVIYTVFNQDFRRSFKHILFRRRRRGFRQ

[6] = target: Beta-1 adrenergic receptor (Homo sapiens, UniProt P08588); assay type: functional
[7] = target: T4, B2 bradykinin receptor (Homo sapiens, UniProt P30411)
T4 sequence (P30411 whole entry): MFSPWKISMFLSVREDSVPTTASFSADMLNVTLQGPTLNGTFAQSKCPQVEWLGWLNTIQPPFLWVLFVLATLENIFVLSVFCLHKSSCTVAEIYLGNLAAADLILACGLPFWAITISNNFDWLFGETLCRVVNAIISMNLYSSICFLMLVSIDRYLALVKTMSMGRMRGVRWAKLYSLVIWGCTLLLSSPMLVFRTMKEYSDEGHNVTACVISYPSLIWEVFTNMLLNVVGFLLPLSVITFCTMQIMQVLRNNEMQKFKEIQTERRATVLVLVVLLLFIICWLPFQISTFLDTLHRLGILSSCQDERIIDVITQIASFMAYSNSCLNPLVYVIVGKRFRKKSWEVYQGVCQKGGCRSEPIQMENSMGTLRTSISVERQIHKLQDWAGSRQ

[8] = target: Muscarinic acetylcholine receptor M3 (Homo sapiens, UniProt P20309)
[9] = target: Neuronal acetylcholine receptor subunit alpha-4 (Homo sapiens, UniProt P43681)
[10] = target: D(1A) dopamine receptor (Homo sapiens, UniProt P21728); assay type: functional, cell-based
[11] = target: T5, Endothelin-1 receptor (Homo sapiens, UniProt P25101)
T5 sequence (P25101 whole entry): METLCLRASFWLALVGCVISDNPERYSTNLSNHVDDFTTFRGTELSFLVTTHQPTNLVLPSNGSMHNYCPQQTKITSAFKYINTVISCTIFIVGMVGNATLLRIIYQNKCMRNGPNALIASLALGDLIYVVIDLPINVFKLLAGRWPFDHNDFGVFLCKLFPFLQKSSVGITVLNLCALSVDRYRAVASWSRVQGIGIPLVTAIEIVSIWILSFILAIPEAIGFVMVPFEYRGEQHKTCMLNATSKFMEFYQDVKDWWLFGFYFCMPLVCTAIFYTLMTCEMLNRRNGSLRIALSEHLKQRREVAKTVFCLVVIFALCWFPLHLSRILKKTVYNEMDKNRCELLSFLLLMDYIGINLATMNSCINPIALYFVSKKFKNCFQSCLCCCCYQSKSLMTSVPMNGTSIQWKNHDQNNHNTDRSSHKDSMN

[12] = target: Gamma-aminobutyric acid receptor subunit alpha-1 (Rattus norvegicus, UniProt P62813); assay type: functional
[13] = target: T6, 5-hydroxytryptamine receptor 2A (Homo sapiens, UniProt P28223); assay type: functional, cell-based
[14] = target: T6, 5-hydroxytryptamine receptor 2A; assay type: functional, cell-based; remark: listed apart in the source
[15] = target: 5-hydroxytryptamine receptor 2B (Homo sapiens, UniProt P41595); assay type: functional, cell-based
Also: assay procedure not described here.

Chain of Adenosine receptor A2a (P29274 whole entry): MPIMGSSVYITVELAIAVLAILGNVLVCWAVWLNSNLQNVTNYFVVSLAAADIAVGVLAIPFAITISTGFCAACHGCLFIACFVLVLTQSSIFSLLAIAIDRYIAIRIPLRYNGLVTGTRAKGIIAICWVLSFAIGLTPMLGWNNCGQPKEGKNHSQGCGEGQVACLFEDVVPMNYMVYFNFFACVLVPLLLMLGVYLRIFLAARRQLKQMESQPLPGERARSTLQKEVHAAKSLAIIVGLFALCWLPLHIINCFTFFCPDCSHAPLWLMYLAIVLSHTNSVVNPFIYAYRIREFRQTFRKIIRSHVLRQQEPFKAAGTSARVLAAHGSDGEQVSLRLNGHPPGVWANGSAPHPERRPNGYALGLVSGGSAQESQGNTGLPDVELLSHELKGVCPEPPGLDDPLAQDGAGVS
Chain of Muscarinic acetylcholine receptor M3 (P20309 whole entry): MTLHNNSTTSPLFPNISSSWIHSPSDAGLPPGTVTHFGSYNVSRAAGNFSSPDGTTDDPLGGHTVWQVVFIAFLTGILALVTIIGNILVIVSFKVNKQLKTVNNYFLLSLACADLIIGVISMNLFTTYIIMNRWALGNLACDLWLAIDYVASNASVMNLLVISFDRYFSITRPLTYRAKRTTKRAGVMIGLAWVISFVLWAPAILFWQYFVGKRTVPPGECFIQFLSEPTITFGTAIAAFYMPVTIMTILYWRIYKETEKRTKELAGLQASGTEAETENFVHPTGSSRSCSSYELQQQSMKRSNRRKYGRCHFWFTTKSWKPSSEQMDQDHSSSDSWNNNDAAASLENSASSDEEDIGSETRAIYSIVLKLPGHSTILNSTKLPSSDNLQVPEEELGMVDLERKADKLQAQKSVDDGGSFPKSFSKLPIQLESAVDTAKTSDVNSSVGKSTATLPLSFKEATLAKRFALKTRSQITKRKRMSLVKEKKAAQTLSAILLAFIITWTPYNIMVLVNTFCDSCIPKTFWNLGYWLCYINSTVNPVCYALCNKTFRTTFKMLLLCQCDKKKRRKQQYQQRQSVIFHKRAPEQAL
T6 sequence (P28223 whole entry): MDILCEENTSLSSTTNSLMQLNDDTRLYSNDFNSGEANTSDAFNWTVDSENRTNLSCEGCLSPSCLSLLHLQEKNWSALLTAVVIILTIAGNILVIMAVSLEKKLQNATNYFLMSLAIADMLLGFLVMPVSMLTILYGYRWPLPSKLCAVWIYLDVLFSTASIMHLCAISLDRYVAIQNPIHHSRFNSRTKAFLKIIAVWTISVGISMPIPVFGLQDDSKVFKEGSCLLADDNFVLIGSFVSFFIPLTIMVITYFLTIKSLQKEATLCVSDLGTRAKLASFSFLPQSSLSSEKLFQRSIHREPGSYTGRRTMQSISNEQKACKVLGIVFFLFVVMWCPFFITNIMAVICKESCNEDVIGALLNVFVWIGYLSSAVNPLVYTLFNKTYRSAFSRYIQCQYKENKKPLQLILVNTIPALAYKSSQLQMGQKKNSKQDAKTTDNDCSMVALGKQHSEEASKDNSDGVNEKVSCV
Chain of Gamma-aminobutyric acid receptor subunit alpha-1 (P62813 whole entry): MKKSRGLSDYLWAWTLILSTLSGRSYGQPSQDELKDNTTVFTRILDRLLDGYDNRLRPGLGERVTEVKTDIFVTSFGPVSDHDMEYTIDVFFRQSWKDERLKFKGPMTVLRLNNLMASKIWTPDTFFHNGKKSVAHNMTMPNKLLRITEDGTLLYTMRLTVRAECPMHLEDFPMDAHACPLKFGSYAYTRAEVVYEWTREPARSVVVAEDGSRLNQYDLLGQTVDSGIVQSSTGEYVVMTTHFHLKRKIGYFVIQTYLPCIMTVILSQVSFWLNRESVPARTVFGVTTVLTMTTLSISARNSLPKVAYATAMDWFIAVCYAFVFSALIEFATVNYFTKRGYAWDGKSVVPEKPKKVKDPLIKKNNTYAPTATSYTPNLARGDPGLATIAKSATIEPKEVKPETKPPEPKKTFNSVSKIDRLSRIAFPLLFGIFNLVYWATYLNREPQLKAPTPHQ
Chain of Beta-1 adrenergic receptor (P08588 whole entry): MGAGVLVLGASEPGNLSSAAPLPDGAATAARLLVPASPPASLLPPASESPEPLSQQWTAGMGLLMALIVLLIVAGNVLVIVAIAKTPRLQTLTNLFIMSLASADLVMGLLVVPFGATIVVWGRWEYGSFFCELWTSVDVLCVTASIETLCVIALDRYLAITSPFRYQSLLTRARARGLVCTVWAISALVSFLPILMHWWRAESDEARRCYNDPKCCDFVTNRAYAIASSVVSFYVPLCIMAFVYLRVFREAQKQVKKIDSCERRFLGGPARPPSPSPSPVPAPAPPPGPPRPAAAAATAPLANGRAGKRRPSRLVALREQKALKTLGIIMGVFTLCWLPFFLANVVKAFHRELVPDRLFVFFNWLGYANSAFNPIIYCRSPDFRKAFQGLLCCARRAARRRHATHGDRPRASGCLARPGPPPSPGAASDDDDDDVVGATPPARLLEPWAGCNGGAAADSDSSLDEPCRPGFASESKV
Chain of Neuronal acetylcholine receptor subunit alpha-4 (P43681 whole entry): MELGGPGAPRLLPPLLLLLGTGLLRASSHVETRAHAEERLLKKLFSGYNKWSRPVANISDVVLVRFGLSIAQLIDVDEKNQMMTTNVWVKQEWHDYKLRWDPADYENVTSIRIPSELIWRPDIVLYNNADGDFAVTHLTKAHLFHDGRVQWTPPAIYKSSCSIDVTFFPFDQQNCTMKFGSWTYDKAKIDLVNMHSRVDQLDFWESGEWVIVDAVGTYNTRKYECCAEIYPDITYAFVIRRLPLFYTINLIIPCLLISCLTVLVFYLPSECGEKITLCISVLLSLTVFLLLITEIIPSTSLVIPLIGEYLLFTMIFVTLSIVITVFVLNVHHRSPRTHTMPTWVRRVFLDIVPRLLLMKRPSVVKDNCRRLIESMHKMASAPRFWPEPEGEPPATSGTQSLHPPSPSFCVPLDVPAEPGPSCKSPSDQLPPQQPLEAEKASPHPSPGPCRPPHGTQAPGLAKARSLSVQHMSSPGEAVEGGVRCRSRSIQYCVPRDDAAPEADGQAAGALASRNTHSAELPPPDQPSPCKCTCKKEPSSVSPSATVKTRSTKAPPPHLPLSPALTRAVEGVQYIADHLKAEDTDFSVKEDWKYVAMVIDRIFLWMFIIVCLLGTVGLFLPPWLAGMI
Chain of 5-hydroxytryptamine receptor 2B (P41595 whole entry): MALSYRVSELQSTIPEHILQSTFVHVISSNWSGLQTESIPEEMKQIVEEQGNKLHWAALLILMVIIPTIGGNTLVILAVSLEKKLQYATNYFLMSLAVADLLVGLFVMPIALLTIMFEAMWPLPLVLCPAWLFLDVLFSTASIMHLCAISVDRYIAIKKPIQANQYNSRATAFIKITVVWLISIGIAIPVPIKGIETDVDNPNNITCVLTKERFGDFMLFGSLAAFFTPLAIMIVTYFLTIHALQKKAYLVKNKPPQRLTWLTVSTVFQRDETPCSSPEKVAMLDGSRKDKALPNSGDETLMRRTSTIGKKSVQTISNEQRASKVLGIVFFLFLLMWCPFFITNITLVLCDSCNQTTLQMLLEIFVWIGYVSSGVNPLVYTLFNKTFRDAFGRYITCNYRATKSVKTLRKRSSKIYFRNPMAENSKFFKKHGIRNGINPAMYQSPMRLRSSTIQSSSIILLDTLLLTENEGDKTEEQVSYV
Chain of D(1A) dopamine receptor (P21728 whole entry): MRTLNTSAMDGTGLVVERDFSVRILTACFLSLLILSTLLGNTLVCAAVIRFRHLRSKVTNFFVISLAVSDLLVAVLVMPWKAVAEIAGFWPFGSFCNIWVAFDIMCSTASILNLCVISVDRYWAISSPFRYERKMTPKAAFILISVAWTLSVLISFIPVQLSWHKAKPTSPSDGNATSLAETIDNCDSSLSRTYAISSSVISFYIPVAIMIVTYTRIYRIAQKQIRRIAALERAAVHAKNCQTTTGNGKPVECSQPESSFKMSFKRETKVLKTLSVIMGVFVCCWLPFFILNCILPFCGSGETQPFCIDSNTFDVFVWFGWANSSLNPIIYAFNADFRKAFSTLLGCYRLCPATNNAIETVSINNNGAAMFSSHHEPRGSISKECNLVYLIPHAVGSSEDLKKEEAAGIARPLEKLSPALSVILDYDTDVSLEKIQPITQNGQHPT

Structure (SMILES)	AC50 [1]	AC50 [2]	AC50 [3]	AC50 [4]	AC50 [5]	AC50 [6]	AC50 [7]	AC50 [8]	AC50 [9]	AC50 [10]	AC50 [11]	AC50 [12]	AC50 [13]	AC50 [14]	AC50 [15]
CCc1cc2c(s1)-n1c(C)nnc1CN=C2c1ccccc1Cl [ETIZOLAM]	> 30 µM	> 30 µM	> 30 µM	> 30 µM	> 30 µM	> 30 µM	> 30 µM	> 30 µM	> 30 µM	> 30 µM	> 30 µM	0.0091 µM	> 30 µM	> 30 µM	> 30 µM
CC/C=C\C/C=C\C/C=C\C/C=C\C/C=C\CCCC(=O)OCC [ICOSAPENT ETHYL]	> 30 µM	> 30 µM	> 30 µM	> 30 µM	> 30 µM	> 30 µM	> 30 µM	> 30 µM	> 30 µM	> 30 µM	> 30 µM	> 30 µM	> 30 µM	> 30 µM	> 30 µM
CO[C@H]1C[C@H](O[C@H]2CC[C@@]3(C)[C@H](CC[C@@H]4[C@@H]3CC[C@]3(C)[C@@H](C5=CC(=O)OC5)[C@@H](OC(C)=O)C[C@]43O)C2)O[C@@H](C)[C@@H]1O [OLEANDRIN]	–	> 30 µM	> 30 µM	> 30 µM	> 30 µM	–	–	> 30 µM	–	> 30 µM	–	> 30 µM	> 30 µM	> 30 µM	> 30 µM
C=CC[N+]1([C@H]2C[C@H]3[C@@H]4CC[C@H]5C[C@H](O)[C@@H](N6CCOCC6)C[C@]5(C)[C@H]4CC[C@]3(C)[C@H]2OC(C)=O)CCCC1 [ROCURONIUM]	> 30 µM	> 30 µM	> 30 µM	> 30 µM	> 30 µM	> 30 µM	> 30 µM	> 30 µM	> 30 µM	> 30 µM	–	> 30 µM	> 30 µM	> 30 µM	> 30 µM
C=CCN1CCc2nc(N)sc2CC1 [TALIPEXOLE]	> 30 µM	2.5 µM	0.083 µM	–	0.71 µM	> 30 µM	> 30 µM	> 30 µM	> 30 µM	> 30 µM	> 30 µM	> 30 µM	11 µM	24 µM	> 30 µM
CC(C)(C)NCC(O)c1ccccc1Cl (stereo unspecified) [TULOBUTEROL]	> 30 µM	> 30 µM	> 30 µM	> 30 µM	> 30 µM	–	> 30 µM	> 30 µM	> 30 µM	> 30 µM	> 30 µM	> 30 µM	> 30 µM	> 30 µM	> 30 µM
CC(C(=O)O)c1ccc2c(c1)CC(=O)c1ccccc1S2 (stereo unspecified) [ZALTOPROFEN]	> 30 µM	> 30 µM	> 30 µM	> 30 µM	> 30 µM	–	> 30 µM	> 30 µM	> 30 µM	> 30 µM	> 30 µM	> 30 µM	> 30 µM	> 30 µM	> 30 µM
